Reference: patent publication US6706718B2, “3-(2,4-dimethylthiazol-5-yl)indeno[1,2-c]pyrazol-4-one derivatives and their uses” (Bristol-Myers Squibb Company, priority 2000, dated 2004)
Where a name gives a salt, the structure may show the parent alone.

Compound | melting point
Cc1nc(C)c(-c2[nH]nc3c2C(=O)c2c(NC(=O)NN4CCN(C)CC4)cccc2-3)s1 (as salt: hydrochloride) | 278 °C
Cc1nc(C)c(-c2[nH]nc3c2C(=O)c2c(NC(=O)NN4CCOCC4)cccc2-3)s1 (as salt: TFA) [Example 2, 3-(2,4-dimethylthiazol-5-yl)-5-(morpholinocarbamoylamino)indeno[1,2-c]pyrazol-4-one] | > 300 °C
